The text below walks through data of patent US20090181986A1, “SUBSTITUTED HETEROCYCLIC COMPOUNDS” (priority 2007, published 2009).

Data set [1] addresses T1, human cardiac L-type calcium channels (hCav1.2, coexpressed with the beta 2 subunit) (Homo sapiens, UniProt Q13936).
T1 construct: expressed in transfected cells
Briefly: L-type calcium channel patch clamp screening assay (ICaL, HEK293). Particulars: hCav1.2 in HEK293, percentage of current inhibited at steady state. Type of data set: cell-based. Here is the method: Compounds are screened to test for block of human cardiac L-type calcium channels (hCav1.2, encoded by the human CACNA1C gene and coexpressed with the beta 2 subunit, encoded by the human CACNB2 gene) expressed in an HEK293 cell line. Stable transfectants were selected using antibiotic resistance genes incorporated into the expression plasmids and selection pressure is maintained with selection antibiotics added to the culture medium. Cells are cultured using standard tissue culture methods for HEK293 cells.
Cells are harvested for addition to a PatchXpress automated patch clamp system. The external solution contains: 137 mM NaCl; 4 mM KCl; 1.8 mM CaCl2; 1 mM MgCl2; […]; 10 mM Glucose (pH adjusted to 7.4 with NaOH). The internal solution contains: 130 mM Cs Aspartate; 5 mM MgCl2; 5 mM EGTA; 4 mM ATP; 0.1 mM GTP; 10 mM HEPES (pH adjusted to 7.2 with N-methyl-D-glucamine).
Onset of block and steady state block of hCav1.2 channels are monitored using a stimulus voltage pattern consisting of a depolarizing test pulse (duration, 200 ms; amplitude, 10 mV) at 10s intervals from a −80 mV holding potential (FIG. 5). Test compound concentrations (1 μM and 10 μM) are applied cumulatively in ascending order without washout between applications. Peak current is measured during the step to 10 mV. A saturating concentration of nifedipine (10 μM) is added at the end of each experiment to completely block hCav1.2 current and verify sensitivity to channel blockade. Leakage current is measured after nifedipine addition and digitally subtracted from the total membrane current record. Each compound is applied to naive cells and each concentration is applied four times for a total exposure duration of five (5) minutes per concentration.
Test compound stock solutions are prepared in dimethyl sulfoxide (DMSO) and stored frozen. Test compound concentrations are prepared fresh daily by diluting stock solutions into the external HEPES-buffered physiological saline solution described above. […] Each test compound formulation is sonicated (Model 2510/5510, Branson Ultrasonics, Danbury, Conn.), at ambient room temperature for at least 20 minutes to facilitate dissolution. In preparation for the recording session, a glass-lined 96-well compound plate is loaded with the appropriate amounts of test and control solutions, and placed in the plate well of PatchXpress® (Model 7000A, MDS Analytical Technologies, Sunnyvale, Calif.).
Data acquisition and analyses are performed using conventional software. Steady state is defined by the limiting constant rate of change with time (linear time dependence). The steady state before and after test compound application is used to calculate the percentage of current inhibited at each concentration.

In a further data set the test system is L-type calcium channel. In words: L-type calcium channel activity well-plate assay (IMR-32 cells, Ca-4 dye, FlexStation). Type of data set: cell-based, human. An outline of the steps: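 IMR-32 human neuroblastoma cells seeded overnight at 200,000 cells/well, loaded 1 h at 37° with Ca-4 dye in HBSS/20 mM HEPES pH 7.4 with 2 mM probenecid.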
The target of data set [2] is T2, wild-type human cardiac sodium channel, hNav1.5 (Homo sapiens, UniProt Q14524). Briefly: Late INa screening assay (PatchXpress whole cell patch clamp, late current generated with Tefluthrin or ATX II). Type of data set: cell-based. The following applies: test compound at 10 μM. Here is the method:
(§1) The late sodium current (Late INa) and peak sodium current (Peak INa) assays are performed on an automated electrophysiology platform, PatchXpress 7000A (MDS Analytical Technologies, Sunnyvale, Calif.), which uses the whole cell patch clump technique to measure currents through the cell membrane of up to 16 cells at a time. The assay uses an HEK293 (human embryonic kidney) cell line heterologously expressing the wild-type human cardiac sodium channel, hNav1.5, purchased from Millipore (Billerica, Mass.). No beta subunits were coexpressed with the Na channel alpha subunit. […] Experiments are carried out at 24-27° C.
(§2) For both the Late INa and Peak INa assays, series resistance compensation is set to 50% and whole-cell compensation is performed automatically. […] Currents through open sodium channels are automatically recorded and stored in the DataXpress2 database (MDS Analytical Technologies, Sunnyvale, Calif.). Analysis is performed using DataXpress2 analysis software and data are compiled in Excel.
Compound stocks are routinely made in glass vials to 10 mM in dimethyl sulfoxide (DMSO). In some cases, when compounds are not soluble in DMSO, they are made in 100% ethanol. Stocks are sonicated as necessary. The extracellular solution for screening Late INa is composed of: 140 mM NaCl, 4 mM KCl, 1.8 mM CaCl2, 0.75 mM MgCl2, and 5 mM HEPES with pH adjusted to 7.4 using NaOH. The extracellular solution for screening Peak INa is composed of: 20 mM NaCl, 120 mM N-methyl-D glucamine, 4 mM KCl, 1.8 mM CaCl2, 0.75 mM MgCl2, and 5 mM HEPES with pH adjusted to 7.4 using HCl. The intracellular solution used to perfuse the inside of the cells for both the Late INa and Peak INa assays contains: 120 mM CsF, […], 5 mM EGTA, 5 mM HEPES and pH adjusted to 7.4 with CsOH. […] The ONa extracellular solution used at the end of each experiment for the Late INa and Peak INa assays to measure baseline current contains: 140 mM N-methyl-D-glucamine; 4 mM KCl; 1.8 mM CaCl2; 0.75 mM MgCl2; 5 mM HEPES and pH was adjusted to 7.4 with HCl.
For the Late INa assay, sodium channels are activated every 10 seconds (0.1 Hz) by depolarizing the cell membrane to −20 mV for 250 milliseconds (ms) from a holding potential of −120 mV.
All compounds are tested to determine their activity in blocking the late sodium current. Late INa current is generated by adding 10 μM Tefluthrin (pyrethroid) to the extracellular solution while recording Na currents. […] For some experiments, 50 nM ATX II (sea anemone toxin), another late INa activator, was used to generate the late component. […] Baseline current in the absence of Na^+ ions is measured at the end of each experiment (after two additions of 0 Na solution—see above) and is used to calculate the percent block by compound.
For orientation: Patch clamp records ionic current or voltage across a cell membrane.

Data set [3] addresses T2, wild-type human cardiac sodium channel, hNav1.5. In words: Peak INa screening assay (tonic block and use-dependent block). Type of data set: cell-based. The following applies: test compound at 10 μM. Here is the method: as §1, §2
Compound stocks are routinely made in glass vials to 10 mM in dimethyl sulfoxide (DMSO). In some cases, when compounds are not soluble in DMSO, they are made in 100% ethanol. Stocks are sonicated as necessary. The extracellular solution for screening Late INa is composed of: 140 mM NaCl, 4 mM KCl, 1.8 mM CaCl2, 0.75 mM MgCl2, and 5 mM HEPES with pH adjusted to 7.4 using NaOH. The extracellular solution for screening Peak INa is composed of: 20 mM NaCl, 120 mM N-methyl-D glucamine, 4 mM KCl, 1.8 mM CaCl2, 0.75 mM MgCl2, and 5 mM HEPES with pH adjusted to 7.4 using HCl. The intracellular solution used to perfuse the inside of the cells for both the Late INa and Peak INa assays contains: 120 mM CsF, […], 5 mM EGTA, 5 mM HEPES and pH adjusted to 7.4 with CsOH. Compounds are diluted in extracellular solution to […] in glass vials and then transferred to glass well plates before robotic addition to the cells. The ONa extracellular solution used at the end of each experiment for the Late INa and Peak INa assays to measure baseline current contains: 140 mM N-methyl-D-glucamine; 4 mM KCl; 1.8 mM CaCl2; 0.75 mM MgCl2; 5 mM HEPES and pH was adjusted to 7.4 with HCl.
Compounds were also evaluated for their effect in several other assays, including their effect on Peak INa. In some cases, the effect on Peak INa was measured using data from the Late INa assay. […] Since the peak INa can be very large, introducing artifacts in the recording, the concentration of Na^+ in the bath is reduced to 20 mM and a nonpermeant cation is added to compensate for the Na^+ that was omitted from the standard extracellular solution (see above). The peak INa assay uses a holding potential of −100 mV and a 20 ms test pulse to 0 mV to activate the channel. As in the Late INa assay, stepping the voltage to 0 mV causes a rapid increase in negative Na current through hNav1.5 that inactivates within a few ms. No late INa activator is added for the peak assay.
For the separate peak INa assay, both tonic (TB) block and use-dependent (UDB) block of peak inward sodium current by 10 μM compound are determined. TB is block of the channel in the resting state, before the channel opens. TB is simulated in this assay by stimulating the channel to open at a low frequency (0.1 Hz). This is done in order to measure the control current amplitude and monitor current rundown, enabling correction for rundown in the calculation of percent block for TB.

In a further data set the target is hERG potassium channel (Homo sapiens, UniProt Q12809). In words: hERG screening assay (PatchXpress patch clamp, CHO cells).
Chain of hERG potassium channel (Q12809 whole entry): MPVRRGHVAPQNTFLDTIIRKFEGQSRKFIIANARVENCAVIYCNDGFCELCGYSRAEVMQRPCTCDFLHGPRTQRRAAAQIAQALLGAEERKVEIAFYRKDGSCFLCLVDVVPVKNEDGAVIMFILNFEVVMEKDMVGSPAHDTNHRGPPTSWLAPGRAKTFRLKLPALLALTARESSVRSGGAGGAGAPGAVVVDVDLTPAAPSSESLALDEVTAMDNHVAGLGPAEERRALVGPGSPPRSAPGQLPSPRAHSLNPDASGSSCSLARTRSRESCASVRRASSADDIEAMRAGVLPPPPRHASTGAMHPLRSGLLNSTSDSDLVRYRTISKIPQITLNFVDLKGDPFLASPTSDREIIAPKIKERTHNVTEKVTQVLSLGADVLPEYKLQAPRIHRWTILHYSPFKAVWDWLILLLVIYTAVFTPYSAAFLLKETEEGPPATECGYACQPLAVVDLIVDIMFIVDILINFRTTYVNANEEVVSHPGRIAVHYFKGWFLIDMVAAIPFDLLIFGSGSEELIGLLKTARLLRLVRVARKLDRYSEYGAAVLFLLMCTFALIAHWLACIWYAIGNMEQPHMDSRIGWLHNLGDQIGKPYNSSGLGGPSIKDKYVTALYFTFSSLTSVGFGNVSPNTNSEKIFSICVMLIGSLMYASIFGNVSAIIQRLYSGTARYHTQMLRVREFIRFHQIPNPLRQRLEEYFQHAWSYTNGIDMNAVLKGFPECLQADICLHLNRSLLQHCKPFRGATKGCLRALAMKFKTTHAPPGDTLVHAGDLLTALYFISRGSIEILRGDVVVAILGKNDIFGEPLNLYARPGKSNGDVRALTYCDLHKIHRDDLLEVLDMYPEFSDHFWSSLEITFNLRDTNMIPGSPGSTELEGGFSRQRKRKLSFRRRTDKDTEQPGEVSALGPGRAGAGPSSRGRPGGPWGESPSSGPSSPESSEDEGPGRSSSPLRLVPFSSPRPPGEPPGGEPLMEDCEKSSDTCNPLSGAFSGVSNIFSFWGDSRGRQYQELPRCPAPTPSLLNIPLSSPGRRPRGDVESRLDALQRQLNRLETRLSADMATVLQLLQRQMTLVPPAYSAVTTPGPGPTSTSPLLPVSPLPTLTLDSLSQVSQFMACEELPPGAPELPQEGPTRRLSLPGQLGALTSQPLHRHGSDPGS
[4] abbreviates: tonic block, read-out: Tonic Peak INa % blk.
Setting [5] is: use-dependent block, read-out: UDB Peak INa % blk.

Where two headings read alike, the source gives them in different places.

T2 sequence (Q14524 whole entry): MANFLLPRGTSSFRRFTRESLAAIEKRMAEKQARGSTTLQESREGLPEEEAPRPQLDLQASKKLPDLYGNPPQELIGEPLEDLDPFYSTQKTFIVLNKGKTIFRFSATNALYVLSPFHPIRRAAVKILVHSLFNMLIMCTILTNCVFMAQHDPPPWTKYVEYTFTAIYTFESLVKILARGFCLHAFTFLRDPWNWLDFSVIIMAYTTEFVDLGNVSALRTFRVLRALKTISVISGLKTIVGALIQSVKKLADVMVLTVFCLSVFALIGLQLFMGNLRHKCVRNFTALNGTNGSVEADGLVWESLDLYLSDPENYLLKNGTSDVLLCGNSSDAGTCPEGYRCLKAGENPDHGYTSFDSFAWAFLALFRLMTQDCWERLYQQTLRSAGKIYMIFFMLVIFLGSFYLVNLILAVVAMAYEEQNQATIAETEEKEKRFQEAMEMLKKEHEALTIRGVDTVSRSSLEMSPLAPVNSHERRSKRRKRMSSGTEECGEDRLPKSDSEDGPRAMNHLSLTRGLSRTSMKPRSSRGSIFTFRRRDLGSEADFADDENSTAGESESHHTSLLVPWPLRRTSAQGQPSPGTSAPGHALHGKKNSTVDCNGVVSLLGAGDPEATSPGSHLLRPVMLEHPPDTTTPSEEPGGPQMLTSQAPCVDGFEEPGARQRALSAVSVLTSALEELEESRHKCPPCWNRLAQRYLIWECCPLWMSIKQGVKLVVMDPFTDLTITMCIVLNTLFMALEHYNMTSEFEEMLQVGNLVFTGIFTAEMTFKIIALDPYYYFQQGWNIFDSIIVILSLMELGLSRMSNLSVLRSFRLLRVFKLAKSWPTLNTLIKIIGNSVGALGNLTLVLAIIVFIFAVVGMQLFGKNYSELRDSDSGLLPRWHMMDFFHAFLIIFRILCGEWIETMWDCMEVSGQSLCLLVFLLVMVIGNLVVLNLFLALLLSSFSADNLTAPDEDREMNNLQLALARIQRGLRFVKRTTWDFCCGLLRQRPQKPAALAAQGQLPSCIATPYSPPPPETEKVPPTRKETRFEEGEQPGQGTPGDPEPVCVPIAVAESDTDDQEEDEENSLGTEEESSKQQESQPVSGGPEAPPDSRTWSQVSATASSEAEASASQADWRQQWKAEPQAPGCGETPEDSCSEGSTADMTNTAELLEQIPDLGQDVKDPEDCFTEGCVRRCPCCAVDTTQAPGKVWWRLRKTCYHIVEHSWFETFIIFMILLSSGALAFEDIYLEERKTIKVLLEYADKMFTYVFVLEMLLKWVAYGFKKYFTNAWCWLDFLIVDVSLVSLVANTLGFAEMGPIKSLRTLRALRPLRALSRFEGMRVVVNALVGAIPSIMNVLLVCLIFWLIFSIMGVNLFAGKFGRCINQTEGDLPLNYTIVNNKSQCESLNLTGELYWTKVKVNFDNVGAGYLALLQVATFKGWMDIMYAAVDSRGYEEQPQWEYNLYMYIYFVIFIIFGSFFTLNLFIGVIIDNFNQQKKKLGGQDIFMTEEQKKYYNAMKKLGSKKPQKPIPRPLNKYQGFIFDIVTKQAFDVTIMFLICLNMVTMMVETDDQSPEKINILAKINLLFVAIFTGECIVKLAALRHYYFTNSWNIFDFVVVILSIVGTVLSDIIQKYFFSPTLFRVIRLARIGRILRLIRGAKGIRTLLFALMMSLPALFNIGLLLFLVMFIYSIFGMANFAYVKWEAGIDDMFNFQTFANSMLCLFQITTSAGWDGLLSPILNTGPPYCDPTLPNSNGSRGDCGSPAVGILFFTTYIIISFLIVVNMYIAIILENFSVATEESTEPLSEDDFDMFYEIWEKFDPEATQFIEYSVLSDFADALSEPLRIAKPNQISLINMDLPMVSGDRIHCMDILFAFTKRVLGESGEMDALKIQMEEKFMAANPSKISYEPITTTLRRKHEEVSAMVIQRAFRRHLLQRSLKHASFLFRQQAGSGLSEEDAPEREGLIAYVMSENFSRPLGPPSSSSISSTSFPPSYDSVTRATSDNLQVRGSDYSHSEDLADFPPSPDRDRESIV

Regarding `CCOC(=O)C1=C(C)NC(C)=C(C(=O)OCC)C1c1ccc(OC)cc1F` [PT-432, diethyl 4-(2-fluoro-4-methoxyphenyl)-2,6-dimethyl-1,4-dihydropyridine-3,5-dicarboxylate], the “ICaL Patch Clamp Assay 1 μM % blk” value in data set [1] (1 μM test compound) came to 3.7%. In addition, the “ICaL Patch Clamp Assay 10 μM % blk” value in data set [1] (10 μM test compound) was determined as 35.3%.
For the molecule `CC1=C(C(=O)O[C@H](C)c2ccccc2)C(c2cccc3ccccc23)n2nnnc2N1` (stereo partly shown) [PT-047], the “CaL Plate Assay % blk (1 μM test cmpd)” value with L-type calcium channel (1 μM test cmpd) is 24%. The “CaL Plate Assay % blk (10 μM test cmpd)” value in the data set on L-type calcium channel (10 μM test cmpd) came out at 42%. Moreover, in data set [2], the “Late INa % blk” value turned out to be 67.4%. In addition, the “Tonic Peak INa % blk” value in data set [3] (tonic block) stood at 36.3%.
For `CC1=C(C(=O)OCc2ccccc2)C(c2cccc3ccccc23)n2nnnc2N1Cc1nnn[nH]1` (stereo not shown) [PT-326, benzyl 4-((1H-tetrazol-5-yl)methyl)-5-methyl-7-(naphthalen-1-yl)-4,7-dihydrotetrazolo[1,5-a]pyrimidine-6-carboxylate], the values for the inhibition at 10 µM in data set [3] (setting [4]) and in data set [3] (setting [5]) were 32.2% and 11.6%, respectively.
As to `CC1=C(C(=O)OCc2ccccc2)C(c2sccc2Br)n2nnnc2N1` (stereo not shown) [PT-401, benzyl 7-(3-bromothiophen-2-yl)-5-methyl-4,7-dihydrotetrazolo[1,5-a]pyrimidine-6-carboxylate], the inhibition at 10 µM stood at 34.6% in data set [3] (setting [4]) and 4.8% in data set [3] (setting [5]).
Turning to `CC1=C(C(=O)OCc2ccccc2)[C@@H](c2ccccc2-c2ccc(C)o2)n2nnnc2N1` [PT-235, (R)-benzyl 5-methyl-7-(2-(5-methylfuran-2-yl)phenyl)-4,7-dihydrotetrazolo[1,5-a]pyrimidine-6-carboxylate], the inhibition at 10 µM in data set [3] (setting [4]) is 8.8%. Moreover, the inhibition at 10 µM in data set [3] (setting [5]) came to 4.5%. On hERG potassium channel, the “hERG Patch Clamp hERG % blk (1 μM test cmpd)” value is 10% and the “hERG Patch Clamp hERG % blk (10 μM test cmpd)” value came out at 41.5%.
For `CC1=C(C(=O)OCc2ccccc2)C(c2ccccc2-c2ccc(NS(C)(=O)=O)cc2)c2cn[nH]c2N1` (stereo not shown) [PT-366, benzyl 6-methyl-4-(4′-(methylsulfonamido)biphenyl-2-yl)-4,7-dihydro-1H-pyrazolo[3,4-b]pyridine-5-carboxylate] the same measures were 20%, 4.6%, 28% and 92%.
On to `COc1ccc(C2C(C(=O)OCc3ccccc3)=C(C)Nc3nnnn32)c(C#N)c1` (stereo not shown) [PT-389, benzyl 7-(2-cyano-4-methoxyphenyl)-5-methyl-4,7-dihydrotetrazolo[1,5-a]pyrimidine-6-carboxylate], for which the inhibition at 10 µM in data set [3] (setting [4]) was determined as 13.9%. Besides, the inhibition at 10 µM in data set [3] (setting [5]) was 2.9%. Further, on hERG potassium channel, the “hERG Patch Clamp hERG % blk (1 μM test cmpd)” value is listed as 23.5% and the “hERG Patch Clamp hERG % blk (10 μM test cmpd)” value was determined as 69%.
Turning to `CCOC(=O)C1=C(C)Nc2nnnn2C1c1ccccc1I` (stereo not shown) [PT-492, ethyl 7-(2-iodophenyl)-5-methyl-4,7-dihydrotetrazolo[1,5-a]pyrimidine-6-carboxylate], the inhibition at 10 µM was 20.6% in data set [3] (setting [4]) and 4.8% in data set [3] (setting [5]).
On to `CC1=C(C(=O)O[C@@H](C)c2ccccc2)C(c2sc3ccccc3c2C)c2cn[nH]c2N1` (stereo partly shown) [PT-523], for which the “Late INa % blk” value in data set [2] is given as 66.7%. The “Tonic Peak INa % blk” value in data set [3] (tonic block) came to 20.8%. The “UDB Peak INa % blk” value in data set [3] (use-dependent block) was determined as 16.2%.
As to `CCOC(=O)C1=C(C)Nc2c(c(C)nn2C)C1c1cccc2ccccc12` (stereo not shown) [PT-440, ethyl 1,3,6-trimethyl-4-(naphthalen-1-yl)-4,7-dihydro-1H-pyrazolo[3,4-b]pyridine-5-carboxylate], the inhibition at 10 µM in data set [3] (setting [4]) was 2.8%. In addition, in data set [3] (setting [5]), the inhibition at 10 µM was determined as 4.3%. For the same molecule, at hERG potassium channel, the “hERG Patch Clamp hERG % blk (1 μM test cmpd)” value is given as 12% and the “hERG Patch Clamp hERG % blk (10 μM test cmpd)” value worked out at 48%.
